In BindingDB's records for doi:10.1074/jbc.M707463200 (National Cancer Institute-Bethesda, 2008) one finds Ki data, which are given here for three compounds.

Molecules are shown by their SMILES.

Assay in all cases: Binding Assay
Holding throughout (settings): pH 7.4; 18 °C

In test [1] the target is Serine/threonine-protein kinase MRCK alpha (Homo sapiens, UniProt Q5VT25). How it is done: (§1) [3H]PDBu binding to the C1 domains of MRCK alpha/beta and PKC alpha/delta was measured using the polyethylene glycol precipitation assay.
Serine/threonine-protein kinase MRCK alpha, sequence (Q5VT25 whole entry, the tested form may be a part): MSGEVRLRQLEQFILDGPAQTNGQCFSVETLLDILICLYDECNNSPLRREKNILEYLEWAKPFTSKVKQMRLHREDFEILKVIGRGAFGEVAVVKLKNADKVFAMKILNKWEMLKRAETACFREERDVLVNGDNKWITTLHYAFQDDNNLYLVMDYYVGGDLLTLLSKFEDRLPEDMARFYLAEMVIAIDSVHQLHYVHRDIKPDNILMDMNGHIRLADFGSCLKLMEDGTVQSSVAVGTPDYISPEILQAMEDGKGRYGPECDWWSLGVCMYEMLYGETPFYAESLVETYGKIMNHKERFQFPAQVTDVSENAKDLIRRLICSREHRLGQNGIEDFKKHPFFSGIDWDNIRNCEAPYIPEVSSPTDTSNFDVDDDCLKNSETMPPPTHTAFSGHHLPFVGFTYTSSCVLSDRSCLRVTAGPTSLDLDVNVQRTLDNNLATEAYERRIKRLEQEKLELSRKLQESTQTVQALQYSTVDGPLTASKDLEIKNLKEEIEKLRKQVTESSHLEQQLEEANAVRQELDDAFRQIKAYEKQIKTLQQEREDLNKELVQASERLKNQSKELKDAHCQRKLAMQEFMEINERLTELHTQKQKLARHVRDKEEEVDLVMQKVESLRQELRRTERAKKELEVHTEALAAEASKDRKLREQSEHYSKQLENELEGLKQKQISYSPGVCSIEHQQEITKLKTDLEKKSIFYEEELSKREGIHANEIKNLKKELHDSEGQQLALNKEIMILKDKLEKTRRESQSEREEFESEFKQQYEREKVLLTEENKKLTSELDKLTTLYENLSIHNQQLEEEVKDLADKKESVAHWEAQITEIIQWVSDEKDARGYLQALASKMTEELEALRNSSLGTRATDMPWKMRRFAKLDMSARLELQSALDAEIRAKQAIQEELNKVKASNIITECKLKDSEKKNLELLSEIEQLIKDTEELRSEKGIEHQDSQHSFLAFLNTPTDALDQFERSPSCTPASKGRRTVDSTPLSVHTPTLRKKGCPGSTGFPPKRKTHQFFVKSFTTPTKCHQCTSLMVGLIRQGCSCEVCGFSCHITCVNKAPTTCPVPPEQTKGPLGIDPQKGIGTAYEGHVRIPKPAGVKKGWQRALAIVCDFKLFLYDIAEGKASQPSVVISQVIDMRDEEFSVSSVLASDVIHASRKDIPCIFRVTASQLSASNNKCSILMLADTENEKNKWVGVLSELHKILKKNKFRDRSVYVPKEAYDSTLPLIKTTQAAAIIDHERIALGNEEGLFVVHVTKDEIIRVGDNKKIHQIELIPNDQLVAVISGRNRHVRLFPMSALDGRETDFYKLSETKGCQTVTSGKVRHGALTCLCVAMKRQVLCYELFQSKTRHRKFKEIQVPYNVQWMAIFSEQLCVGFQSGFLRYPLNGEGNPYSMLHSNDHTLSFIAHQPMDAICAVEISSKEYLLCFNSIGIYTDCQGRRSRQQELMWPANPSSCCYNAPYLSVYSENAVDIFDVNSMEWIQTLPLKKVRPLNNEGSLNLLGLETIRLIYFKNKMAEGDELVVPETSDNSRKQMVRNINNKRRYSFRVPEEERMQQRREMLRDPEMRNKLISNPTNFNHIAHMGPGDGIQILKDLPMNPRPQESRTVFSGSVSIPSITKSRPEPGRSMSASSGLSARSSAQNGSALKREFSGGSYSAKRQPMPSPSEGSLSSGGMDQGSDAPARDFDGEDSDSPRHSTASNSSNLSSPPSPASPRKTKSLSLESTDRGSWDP
In test [2] the target is Serine/threonine-protein kinase MRCK beta (Homo sapiens, UniProt Q9Y5S2). How it is done: as §1
Serine/threonine-protein kinase MRCK beta, sequence (Q9Y5S2 whole entry): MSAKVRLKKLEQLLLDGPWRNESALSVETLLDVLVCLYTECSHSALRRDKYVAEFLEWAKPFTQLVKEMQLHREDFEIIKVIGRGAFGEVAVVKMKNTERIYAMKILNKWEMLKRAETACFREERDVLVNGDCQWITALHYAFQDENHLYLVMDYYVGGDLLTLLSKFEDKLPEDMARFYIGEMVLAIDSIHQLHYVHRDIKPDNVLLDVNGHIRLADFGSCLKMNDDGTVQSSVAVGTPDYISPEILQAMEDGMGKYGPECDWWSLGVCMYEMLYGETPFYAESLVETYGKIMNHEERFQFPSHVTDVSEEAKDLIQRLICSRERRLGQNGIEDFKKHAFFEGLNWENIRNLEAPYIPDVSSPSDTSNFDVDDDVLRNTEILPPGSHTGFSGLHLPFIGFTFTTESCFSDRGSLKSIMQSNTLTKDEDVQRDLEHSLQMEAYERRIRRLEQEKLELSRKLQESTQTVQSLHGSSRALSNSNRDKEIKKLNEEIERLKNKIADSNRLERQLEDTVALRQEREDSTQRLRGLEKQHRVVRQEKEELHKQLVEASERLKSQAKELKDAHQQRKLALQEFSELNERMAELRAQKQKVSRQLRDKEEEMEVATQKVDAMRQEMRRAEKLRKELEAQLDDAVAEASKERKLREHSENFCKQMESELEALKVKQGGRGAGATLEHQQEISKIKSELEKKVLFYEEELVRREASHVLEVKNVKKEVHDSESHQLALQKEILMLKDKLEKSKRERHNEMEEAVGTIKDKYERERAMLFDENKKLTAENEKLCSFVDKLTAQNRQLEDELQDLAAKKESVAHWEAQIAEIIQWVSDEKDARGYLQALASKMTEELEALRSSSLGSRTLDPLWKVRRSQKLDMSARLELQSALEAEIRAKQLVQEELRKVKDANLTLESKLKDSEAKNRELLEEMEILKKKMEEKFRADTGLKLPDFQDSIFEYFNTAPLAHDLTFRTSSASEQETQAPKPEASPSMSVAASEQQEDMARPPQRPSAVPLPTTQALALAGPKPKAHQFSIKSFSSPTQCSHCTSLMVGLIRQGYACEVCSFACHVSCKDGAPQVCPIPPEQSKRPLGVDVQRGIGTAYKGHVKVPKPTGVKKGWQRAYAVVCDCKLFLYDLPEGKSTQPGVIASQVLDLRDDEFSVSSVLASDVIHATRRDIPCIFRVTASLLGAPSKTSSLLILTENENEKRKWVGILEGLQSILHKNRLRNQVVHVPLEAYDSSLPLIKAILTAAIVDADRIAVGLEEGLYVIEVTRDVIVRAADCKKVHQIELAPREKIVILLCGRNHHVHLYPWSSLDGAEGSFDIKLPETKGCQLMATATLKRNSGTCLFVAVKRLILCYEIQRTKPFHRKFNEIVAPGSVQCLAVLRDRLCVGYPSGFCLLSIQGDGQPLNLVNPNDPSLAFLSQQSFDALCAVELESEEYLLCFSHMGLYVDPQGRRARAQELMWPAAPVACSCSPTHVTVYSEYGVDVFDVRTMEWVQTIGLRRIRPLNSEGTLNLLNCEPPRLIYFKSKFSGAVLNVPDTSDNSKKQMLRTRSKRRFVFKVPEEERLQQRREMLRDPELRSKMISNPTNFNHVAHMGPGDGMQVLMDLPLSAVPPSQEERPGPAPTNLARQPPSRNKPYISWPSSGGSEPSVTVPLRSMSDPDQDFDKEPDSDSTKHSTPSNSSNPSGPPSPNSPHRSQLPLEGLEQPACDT
In test [3] the target is Protein kinase C delta type (Homo sapiens, UniProt Q05655). The procedure:
as §1

For test [4], the target named is Protein kinase C alpha type (Homo sapiens, UniProt P17252). The procedure: as §1

Protein kinase C delta type, sequence (Q05655 whole entry): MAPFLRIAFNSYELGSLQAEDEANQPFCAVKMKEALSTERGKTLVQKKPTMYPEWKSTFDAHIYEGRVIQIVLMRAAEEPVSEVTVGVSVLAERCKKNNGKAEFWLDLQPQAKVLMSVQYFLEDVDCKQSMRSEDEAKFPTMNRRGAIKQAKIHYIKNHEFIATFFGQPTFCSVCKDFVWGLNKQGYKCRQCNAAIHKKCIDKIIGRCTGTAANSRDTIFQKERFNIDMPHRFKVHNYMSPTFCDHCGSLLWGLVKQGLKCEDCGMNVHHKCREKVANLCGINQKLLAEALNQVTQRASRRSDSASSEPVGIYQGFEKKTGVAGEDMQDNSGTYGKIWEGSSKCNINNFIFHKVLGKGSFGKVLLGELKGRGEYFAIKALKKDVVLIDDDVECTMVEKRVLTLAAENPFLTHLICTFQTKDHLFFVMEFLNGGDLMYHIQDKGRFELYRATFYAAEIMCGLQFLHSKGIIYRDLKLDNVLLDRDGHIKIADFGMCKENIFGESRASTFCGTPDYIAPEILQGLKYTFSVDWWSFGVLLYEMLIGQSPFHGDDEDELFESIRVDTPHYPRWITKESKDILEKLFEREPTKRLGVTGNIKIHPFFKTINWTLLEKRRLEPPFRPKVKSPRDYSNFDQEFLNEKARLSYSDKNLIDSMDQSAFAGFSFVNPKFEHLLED

Consider `CCCCCCCC(=O)OC[C@H](CO)OC(=O)CCCCCCC`, for which the values for the Ki in test [1] and in test [2] were 2820 nM and 6960 nM, respectively.
For `CN(C)c1ccc(/C=C2/CC(CO)(COC(=O)c3ccc([N+](=O)[O-])cc3)OC2=O)cc1` (centres undefined) [DAG-lactone (130C045)], the Ki came to 22600 nM in test [1], 1.54 nM in test [3], 4200 nM in test [4] and 26000 nM in test [2].
For `CC(C)CC(C/C=C1/CC(CO)(COC(=O)C(C)(C)C)OC1=O)CC(C)C` (centres undefined) [DAG-lactone (HK-434)], the figures for the Ki in test [1], in test [4] and in test [2] were 1030 nM, 402 nM and 1070 nM, respectively.

Usually Ki stands for the equilibrium dissociation constant of an inhibitor or competing ligand from its target. Read a high Ki as lower affinity.
